Reference: US20240207263A1, “SELECTIVE MODULATORS OF ATAXIA TELA[…] (ATM) KINASE AND USES THEREOF” (priority 2021, published 2024)

Each compound was assayed against ATM (Homo sapiens (Human), UniProt Q13315) (assay: biochemical). Conditions: not given.
Sequence of ATM (Q13315 whole entry, looked up): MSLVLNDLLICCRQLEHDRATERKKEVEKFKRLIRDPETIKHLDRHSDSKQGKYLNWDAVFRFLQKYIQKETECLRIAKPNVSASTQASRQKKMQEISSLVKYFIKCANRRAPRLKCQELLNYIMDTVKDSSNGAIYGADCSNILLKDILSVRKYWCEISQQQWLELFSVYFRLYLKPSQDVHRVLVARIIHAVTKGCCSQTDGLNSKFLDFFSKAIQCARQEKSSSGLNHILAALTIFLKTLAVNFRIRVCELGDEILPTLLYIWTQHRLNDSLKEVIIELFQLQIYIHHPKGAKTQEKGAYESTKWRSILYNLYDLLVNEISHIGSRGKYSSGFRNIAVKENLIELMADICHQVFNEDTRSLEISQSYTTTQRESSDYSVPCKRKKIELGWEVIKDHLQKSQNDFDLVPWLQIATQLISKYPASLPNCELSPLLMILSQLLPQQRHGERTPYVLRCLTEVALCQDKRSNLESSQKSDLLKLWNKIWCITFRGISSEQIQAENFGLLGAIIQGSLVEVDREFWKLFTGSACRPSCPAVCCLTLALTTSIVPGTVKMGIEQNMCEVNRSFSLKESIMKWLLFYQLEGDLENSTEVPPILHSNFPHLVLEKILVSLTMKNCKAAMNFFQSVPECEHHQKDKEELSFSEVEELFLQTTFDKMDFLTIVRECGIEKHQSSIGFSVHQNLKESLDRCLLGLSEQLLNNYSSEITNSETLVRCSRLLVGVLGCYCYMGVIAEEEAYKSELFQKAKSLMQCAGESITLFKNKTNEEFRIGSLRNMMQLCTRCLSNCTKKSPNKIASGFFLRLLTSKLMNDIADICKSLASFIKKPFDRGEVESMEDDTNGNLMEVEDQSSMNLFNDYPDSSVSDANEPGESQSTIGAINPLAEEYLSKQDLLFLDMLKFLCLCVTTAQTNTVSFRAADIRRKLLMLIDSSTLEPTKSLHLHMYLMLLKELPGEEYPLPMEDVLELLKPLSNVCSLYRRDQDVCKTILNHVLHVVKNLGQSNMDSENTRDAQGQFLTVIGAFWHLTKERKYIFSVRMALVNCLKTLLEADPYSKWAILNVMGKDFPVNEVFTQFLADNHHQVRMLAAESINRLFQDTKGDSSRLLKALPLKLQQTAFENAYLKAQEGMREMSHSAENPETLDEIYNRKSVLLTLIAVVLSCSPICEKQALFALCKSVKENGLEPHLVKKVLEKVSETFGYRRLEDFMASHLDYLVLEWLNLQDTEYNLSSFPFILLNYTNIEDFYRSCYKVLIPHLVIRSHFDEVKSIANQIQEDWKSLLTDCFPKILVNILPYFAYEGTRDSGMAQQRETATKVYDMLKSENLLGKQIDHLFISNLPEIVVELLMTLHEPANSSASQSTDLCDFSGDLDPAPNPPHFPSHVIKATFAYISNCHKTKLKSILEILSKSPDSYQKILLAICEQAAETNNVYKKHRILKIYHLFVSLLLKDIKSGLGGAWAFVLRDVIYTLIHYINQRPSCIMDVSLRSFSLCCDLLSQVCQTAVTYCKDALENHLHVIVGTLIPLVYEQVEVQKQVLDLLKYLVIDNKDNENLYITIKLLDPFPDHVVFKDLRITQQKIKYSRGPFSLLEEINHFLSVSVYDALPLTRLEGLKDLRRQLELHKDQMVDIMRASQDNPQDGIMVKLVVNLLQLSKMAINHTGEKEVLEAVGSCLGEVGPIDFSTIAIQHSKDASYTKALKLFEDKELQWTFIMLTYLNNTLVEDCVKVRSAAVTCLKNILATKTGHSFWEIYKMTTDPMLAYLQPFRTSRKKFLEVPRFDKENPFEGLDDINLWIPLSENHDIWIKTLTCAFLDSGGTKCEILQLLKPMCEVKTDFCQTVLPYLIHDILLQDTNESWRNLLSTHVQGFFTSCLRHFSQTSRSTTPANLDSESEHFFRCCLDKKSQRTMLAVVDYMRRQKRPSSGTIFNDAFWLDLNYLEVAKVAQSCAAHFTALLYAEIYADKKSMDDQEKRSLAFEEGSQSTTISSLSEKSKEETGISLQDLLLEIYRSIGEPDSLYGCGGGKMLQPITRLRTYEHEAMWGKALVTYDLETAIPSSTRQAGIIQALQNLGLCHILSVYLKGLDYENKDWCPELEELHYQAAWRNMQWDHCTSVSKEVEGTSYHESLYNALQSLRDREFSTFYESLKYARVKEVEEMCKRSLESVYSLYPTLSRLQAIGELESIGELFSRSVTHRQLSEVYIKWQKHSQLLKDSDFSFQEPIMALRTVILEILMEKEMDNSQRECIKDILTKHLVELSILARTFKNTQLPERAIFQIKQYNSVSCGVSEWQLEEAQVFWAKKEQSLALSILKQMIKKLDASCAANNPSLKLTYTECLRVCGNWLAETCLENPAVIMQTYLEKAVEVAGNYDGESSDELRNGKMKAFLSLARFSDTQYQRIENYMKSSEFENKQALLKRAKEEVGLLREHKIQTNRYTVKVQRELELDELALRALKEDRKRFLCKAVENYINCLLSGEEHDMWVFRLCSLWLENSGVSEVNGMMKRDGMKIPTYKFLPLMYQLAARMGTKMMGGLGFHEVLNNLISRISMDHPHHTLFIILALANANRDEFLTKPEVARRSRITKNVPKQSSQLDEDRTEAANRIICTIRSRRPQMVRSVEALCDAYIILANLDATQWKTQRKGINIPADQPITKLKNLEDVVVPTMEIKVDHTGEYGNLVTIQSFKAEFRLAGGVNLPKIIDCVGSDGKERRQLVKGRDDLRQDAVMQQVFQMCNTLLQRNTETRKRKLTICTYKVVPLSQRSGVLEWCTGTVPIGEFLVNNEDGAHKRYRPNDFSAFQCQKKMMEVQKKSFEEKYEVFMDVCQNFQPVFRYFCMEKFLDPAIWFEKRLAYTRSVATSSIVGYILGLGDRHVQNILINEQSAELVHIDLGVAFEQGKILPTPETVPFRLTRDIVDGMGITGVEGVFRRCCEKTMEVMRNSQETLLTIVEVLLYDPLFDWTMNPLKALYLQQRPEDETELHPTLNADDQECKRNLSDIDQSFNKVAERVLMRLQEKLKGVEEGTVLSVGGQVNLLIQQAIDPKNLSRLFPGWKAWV
Type: biochemical
Excerpt: Assay a): ATM Biochemical Potency
Data was collected by Caliper.
Compound `Cn1c(=O)n(C2CCOCC2)c2c3cc(-c4ccc(COCCN5CCC6(CC6)C5)nc4)ccc3nnc21` [Example 94, 8-(6-((2-(5-azaspiro[2.4]heptan-5-yl)ethoxy)methyl)pyridin-3-yl)-3-methyl-1-(tetrahydro-2H-pyran-4-yl)-1H-imidazo[4,5-c]cinnolin-2(3H)-one] has an IC50 of 24 nM.

Same assay, conditions: read-out: ATM IC50
Work on `CC(C)n1c(=O)n(C)c2nnc3ccc(-c4ccc([C@@H](C)OCCN5CCC(C6COC6)CC5)nc4)cc3c21` [Example 83, (R)-1-isopropyl-3-methyl-8-(6-(1-(2-(4-(oxetan-3-yl)piperidin-1-yl)ethoxy)ethyl)pyridin-3-yl)-1H-imidazo[4,5-c]cinnolin-2(3H)-one] yielded an IC50 of 2.4 nM.
With `CC(C)n1c(=O)n(C)c2nnc3ccc(-c4ccc([C@@H](C)OCCN5CCC(C(F)(F)F)CC5)nc4)cc3c21` [Example 84, (R)-1-isopropyl-3-methyl-8-(6-(1-(2-(4-(trifluoromethyl)piperidin-1-yl)ethoxy)ethyl)pyridin-3-yl)-1H-imidazo[4,5-c]cinnolin-2(3H)-one] the IC50 was 1.9 nM.
With `COC[C@@H]1CCN(CCO[C@H](C)c2ccc(-c3ccc4nnc5c(c4c3)n(C(C)C)c(=O)n5C)cn2)C1` [Example 85, 1-isopropyl-8-(6-((R)-1-(2-((R)-3-(methoxymethyl)pyrrolidin-1-yl)ethoxy)ethyl)pyridin-3-yl)-3-methyl-1H-imidazo[4,5-c]cinnolin-2(3H)-one] the IC50 was 3.4 nM.
With `CC(C)n1c(=O)n(C)c2nnc3ccc(-c4ccc([C@@H](C)OCCN5CCCCC5)nc4)cc3c21` [Example 87, (R)-1-isopropyl-3-methyl-8-(6-(1-(2-(piperidin-1-yl)ethoxy)ethyl)pyridin-3-yl)-1H-imidazo[4,5-c]cinnolin-2(3H)-one] the IC50 was 8.2 nM.
`CC(C)n1c(=O)n(C)c2nnc3ccc(-c4ccc([C@@H](C)OCCN5CCC6(CCC6)C5)nc4)cc3c21` [Example 89, (R)-8-(6-(1-(2-(6-azaspiro[3.4]octan-6-yl)ethoxy)ethyl)pyridin-3-yl)-1-isopropyl-3-methyl-1H-imidazo[4,5-c]cinnolin-2(3H)-one] showed an IC50 of 1.6 nM.
`CC(C)n1c(=O)n(C)c2nnc3ccc(-c4ccc([C@@H](C)OCCN5CCC(C)(C#N)C5)nc4)cc3c21` (stereo partly drawn) [Example 90, 1-(2-((R)-1-(5-(1-isopropyl-3-methyl-2-oxo-2,3-dihydro-1H-imidazo[4,5-c]cinnolin-8-yl)pyridin-2-yl)ethoxy)ethyl)-3-methylpyrrolidine-3-carbonitrile] was tested, and the IC50 was 11 nM.
Compound `CC(C)n1c(=O)n(C)c2nnc3ccc(-c4ccc([C@@H](C)OCCN5CCC(C#N)CC5)nc4)cc3c21` [Example 91, (R)-1-(2-(1-(5-(1-isopropyl-3-methyl-2-oxo-2,3-dihydro-1H-imidazo[4,5-c]cinnolin-8-yl)pyridin-2-yl)ethoxy)ethyl)piperidine-4-carbonitrile] has an IC50 of 8.5 nM.
For `CC(C)OC1CCN(CCO[C@H](C)c2ccc(-c3ccc4nnc5c(c4c3)n(C(C)C)c(=O)n5C)cn2)CC1` [Example 92, (R)-8-(6-(1-(2-(4-isopropoxypiperidin-1-yl)ethoxy)ethyl)pyridin-3-yl)-1-isopropyl-3-methyl-1H-imidazo[4,5-c]cinnolin-2(3H)-one], the IC50 was 1.5 nM.
Compound `CC(C)O[C@@H]1CCN(CCO[C@H](C)c2ccc(-c3ccc4nnc5c(c4c3)n(C(C)C)c(=O)n5C)cn2)C1` [Example 93, 8-(6-((R)-1-(2-((R)-3-isopropoxypyrrolidin-1-yl)ethoxy)ethyl)pyridin-3-yl)-1-isopropyl-3-methyl-1H-imidazo[4,5-c]cinnolin-2(3H)-one] has an IC50 of 4.9 nM.
`Cn1c(=O)n(C2CCOCC2)c2c3cc(-c4ccc(COCCN5CCC(F)CC5)nc4)ccc3nnc21` [Example 95, 8-(6-((2-(4-fluoropiperidin-1-yl)ethoxy)methyl)pyridin-3-yl)-3-methyl-1-(tetrahydro-2H-pyran-4-yl)-1H-imidazo[4,5-c]cinnolin-2(3H)-one] gave an IC50 of 47 nM.
Compound `Cn1c(=O)n(C2CCOCC2)c2c3cc(-c4ccc(COCCN5CCC(C)(C)CC5)nc4)ccc3nnc21` [Example 96, 8-(6-((2-(4,4-dimethylpiperidin-1-yl)ethoxy)methyl)pyridin-3-yl)-3-methyl-1-(tetrahydro-2H-pyran-4-yl)-1H-imidazo[4,5-c]cinnolin-2(3H)-one] has an IC50 of 17 nM.
`Cn1c(=O)n(C2CCOCC2)c2c3cc(-c4ccc(COCCN5CC6CC6C5)nc4)ccc3nnc21` (stereo not drawn) [Example 98, 8-(6-((2-(3-azabicyclo[3.1.0]hexan-3-yl)ethoxy)methyl)pyridin-3-yl)-3-methyl-1-(tetrahydro-2H-pyran-4-yl)-1H-imidazo[4,5-c]cinnolin-2(3H)-one] gave an IC50 of 62 nM.
In the case of `Cn1c(=O)n(C2CCOCC2)c2c3cc(-c4ccc(COCCN5CC[C@@H](OC(F)F)C5)nc4)ccc3nnc21` [Example 99, (R)-8-(6-((2-(3-(difluoromethoxy)pyrrolidin-1-yl)ethoxy)methyl)pyridin-3-yl)-3-methyl-1-(tetrahydro-2H-pyran-4-yl)-1H-imidazo[4,5-c]cinnolin-2(3H)-one], the IC50 is reported as 40 nM.
`Cn1c(=O)n(C2CCOCC2)c2c3cc(-c4ccc(COCCN5CC[C@H](OC(F)F)C5)nc4)ccc3nnc21` [Example 100, (S)-8-(6-((2-(3-(difluoromethoxy)pyrrolidin-1-yl)ethoxy)methyl)pyridin-3-yl)-3-methyl-1-(tetrahydro-2H-pyran-4-yl)-1H-imidazo[4,5-c]cinnolin-2(3H)-one] was tested, and the IC50 was 16 nM.
Compound `Cn1c(=O)n(C2CCOCC2)c2c3cc(-c4ccc(COCCN5CCC(OC(F)(F)F)CC5)nc4)ccc3nnc21` [Example 101, 3-methyl-1-(tetrahydro-2H-pyran-4-yl)-8-(6-((2-(4-(trifluoromethoxy)piperidin-1-yl)ethoxy)methyl)pyridin-3-yl)-1H-imidazo[4,5-c]cinnolin-2(3H)-one] has an IC50 of 3.7 nM.
`C[C@@H](OCCN1CC2CC2C1)c1ccc(-c2ccc3nnc4c(c3c2)n(C2CCOCC2)c(=O)n4C)cn1` (stereo partly drawn) [Example 104, 8-(6-((1R)-1-(2-(3-azabicyclo[3.1.0]hexan-3-yl)ethoxy)ethyl)pyridin-3-yl)-3-methyl-1-(tetrahydro-2H-pyran-4-yl)-1H-imidazo[4,5-c]cinnolin-2(3H)-one] showed an IC50 of 19 nM.
`C[C@@H](OCCN1CCC(F)CC1)c1ccc(-c2ccc3nnc4c(c3c2)n(C2CCOCC2)c(=O)n4C)cn1` [Example 108] showed an IC50 of 3.7 nM.
With `C[C@@H](OCCN1CCC(OC(F)(F)F)CC1)c1ccc(-c2ccc3nnc4c(c3c2)n(C2CCOCC2)c(=O)n4C)cn1` [Example 109, (R)-3-methyl-1-(tetrahydro-2H-pyran-4-yl)-8-(6-(1-(2-(4-(trifluoromethoxy)piperidin-1-yl)ethoxy)ethyl)pyridin-3-yl)-1H-imidazo[4,5-c]cinnolin-2(3H)-one] the IC50 was 2.1 nM.
Compound `C[C@@H](OCCN1CCC(C)(C)C1)c1ccc(-c2ccc3nnc4c(c3c2)n(C2CCOCC2)c(=O)n4C)cn1` [Example 111, (R)-8-(6-(1-(2-(3,3-dimethylpyrrolidin-1-yl)ethoxy)ethyl)pyridin-3-yl)-3-methyl-1-(tetrahydro-2H-pyran-4-yl)-1H-imidazo[4,5-c]cinnolin-2(3H)-one] has an IC50 of 12 nM.
`CC(C)O[C@@H]1CCN(CCO[C@H](C)c2ccc(-c3ccc4nnc5c(c4c3)n(C3CCOCC3)c(=O)n5C)cn2)C1` [Example 113, 8-(6-((R)-1-(2-((R)-3-isopropoxypyrrolidin-1-yl)ethoxy)ethyl)pyridin-3-yl)-3-methyl-1-(tetrahydro-2H-pyran-4-yl)-1H-imidazo[4,5-c]cinnolin-2(3H)-one] was tested, and the IC50 was 7.5 nM.
